Experiments:
human GIP Receptor = molecular target: T1, human GIP Receptor (Homo sapiens, UniProt P48546); test: In vitro binding activity to human GIP receptor ([125I]GIP displacement, crude cell membranes); settings: ratio of the Ki value of the endogenous ligand to the Ki value of the test compound; larger ratio = stronger binding
T1 construct: expressed in transfected cells
T1 sequence (P48546 22-466): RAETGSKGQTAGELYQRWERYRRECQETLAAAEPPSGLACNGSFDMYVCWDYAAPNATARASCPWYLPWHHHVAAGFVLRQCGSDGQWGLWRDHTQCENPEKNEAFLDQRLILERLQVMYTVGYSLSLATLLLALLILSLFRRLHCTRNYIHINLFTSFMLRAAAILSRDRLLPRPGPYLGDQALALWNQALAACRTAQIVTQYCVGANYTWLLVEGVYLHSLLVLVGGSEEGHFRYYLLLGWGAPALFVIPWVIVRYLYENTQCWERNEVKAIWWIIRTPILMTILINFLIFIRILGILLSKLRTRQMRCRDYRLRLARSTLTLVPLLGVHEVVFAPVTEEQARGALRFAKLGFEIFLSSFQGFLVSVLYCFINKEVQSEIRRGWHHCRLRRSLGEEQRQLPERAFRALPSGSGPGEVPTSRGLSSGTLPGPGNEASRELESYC
Description: (§1) 89 µL of membrane dissolved in binding buffer (50 mM Hepes, pH 7.4, 5 mM MgCl2 , 5 mM EDTA, 0.005% TWEEN, 0.005% HSA) was transferred to a 96-well test plate (5 µg/well). The compound was serially diluted in DMSO, and then, 1 µL of the diluted compound or 100% DMSO was added to the test plate containing the membrane solution. 10 µL of [^125I] […] The test plate was left at room temperature for 90 minutes. The membrane complexes were harvested into a GF/B plate pre-coated with 0.5% PEI by using a Cell Harvester, and washed for 3 times with 500 µL of pre-cooled elution buffer (50 mM Hepes, pH 7.4, 500 mM NaCl) at 4°C. After drying at 37°C for 2 hours, 50 µL of scintillation fluid was added to each well. The plate was read with a MicroBeta2 scintillation counter after sealing and settling for at least 1 hour so as to determine the membrane bound radioligand level.
hGIP and the compound of the present invention were dissolved in DMSO and stored at -80°C. 98 µL of membrane dissolved in binding buffer (50 mM HEPES pH 7.4, 5 mM MgCl2, 1 mM CaCl2, 0.1% BSA, 0.005% Tween-20) was transferred to a 96-well test plate (15 µg/well). The compound was serially diluted in DMSO, and then, 2 µL of the diluted compounds or 100% DMSO was added to the test plate containing the membrane solution. […] The test plate was left at room temperature for 90 minutes. The membrane complexes were harvested into a GF/B plate pre-coated with 0.5% PEI by using a Cell Harvester, and washed for 3 times with 500 µL of pre-cooled elution buffer (50 mM Tris-HCl pH 7.4, 125 mM NaCl) at 4°C. After drying at 37°C for 2 hours, 50 µL of scintillation fluid was added to each well. The plate was read with a MicroBeta2 scintillation counter after sealing and settling for at least 1 hour so as to determine the membrane bound radioligand level.
The IC50 concentration was converted to Ki (Ki was the inhibition constant) using the Cheng-Prusoff equation. Table 1. Receptor Binding Affinity, Ki Ratio

[1] = Pharmacokinetics following single administration in SD rats; settings: male, Sprague-Dawley, rat, in vivo, sc
Description: The compound was administrated to male SD rats (230-268 g, n=3) at a dose of 50.0 nmol/kg (s.c.) or 25.0 nmol/kg (i.v.). […] 30.0 μL of thawed plasma sample was taken. 150 μL of acetonitrile solution (containing 5 ng·mL^-1 Verapamil , 50 ng·mL^-1 Glibenclamide, 200 ng·mL^-1 Tolbutamide and 200 ng·mL^-1 Diclofenac) were added to precipitate protein. The mixture was vortexed for 5 minutes, and centrifuged at 3700 rpm for 8 minutes. 70.0 μL of the supernatant was taken, into which 70.0 μL of 0.5% aqueous formic acid solution was added. The mixture was vortexed for 5 minutes. 15 μL of the mixture solution was sampled and injected into the LC-MS/MS to determine the drug concentration in plasma. 20.0 μL of thawed plasma sample was taken. 60 μL of acetonitrile solution (containing 5 ng·mL^-1 Verapamil, 50 ng·mL^-1 Glibenclamide, 200 ng·mL^-1 Tolbutamide and 200 ng·mL^-1 Diclofenac) were added to precipitate protein. […] The mixture was vortexed for 10 minutes. 10.0 μL of the mixture solution was sampled and injected into the LC-MS/MS to determine the drug concentration in plasma. 30.0 μL of thawed plasma sample was taken. 150 μL of acetonitrile solution (containing 5 ng·mL^-1 Verapamil, 50 ng·mL^-1 Glibenclamide, 200 ng·mL^-1 Tolbutamide and 200 ng·mL^-1 Diclofenac) were added to precipitate protein. The mixture was vortexed for 5 minutes, and centrifuged at 3700 rpm for 8 minutes. 70.0 μL of the supernatant was taken, into which 70.0 μL of 0.5% aqueous formic acid solution was added. The mixture was vortexed for 5 minutes. 10.0 μL of the mixture solution was sampled and injected into the LC-MS/MS to determine the drug concentration in plasma. […] Table 5 Pharmacokinetic Parameters after Subcutaneous Injection of Different Polypeptide Compounds to Rats

human GLP-1R = human GLP-1R (Homo sapiens, UniProt P43220); test: In vitro binding activity to human GLP-1 receptor ([125I]GLP-1 displacement, crude cell membranes); design: expressed in transfected cells; settings: ratio of the Ki value of the endogenous ligand to the Ki value of the test compound; larger ratio = stronger binding
Description: as §1
The IC50 concentration was converted to Ki (Ki was the inhibition constant) using the Cheng-Prusoff equation.

db/db mice = test: Pharmacodynamic effects in db/db mice, single subcutaneous administration (blood glucose); assay type: in vivo; settings: single s.c. 10 nmol/kg
Description: In this study, 8-9 week old male db/db mice were used. The db/db mice were placed in an individual ventilated cage (IVC) facility with a controlled temperature (20-26°C) and humidity (40-70%) and a controlled 12h:12 h light-dark cycle. The mice can receive food and water ad libitum. Blood was sampled at the tail tip, and the random base blood glucose was measured by a Roche blood glucose meter. The mice were randomly divided into groups according to the random initial fasting blood glucose and initial body weight (n=6/group), and each group had similar body weight and blood glucose.
After a single subcutaneous administration, the random base blood glucoses were recorded at the set time point (0 to 120 hours, the recording of the random base blood glucose was stopped until there was no difference between the random base blood glucose of the compound and that of the vehicle group), and the daily body weight and food intake were also recorded. The data results were statistically analyzed using GraphPad Prism8, and the statistical differences among the groups were analyzed following a T-Test. Significant differences were identified at p<0.05.
Hypoglycemic Duration: the longest time during which the random base blood glucose of the compound has a significant difference (p<0.05) vs. the vehicle group. Table 13. Hypoglycemic Duration of the Compounds

[2] = Group 1, longest time with p<0.05 vs. vehicle

human GLP-1R, sequence (P43220 24-463): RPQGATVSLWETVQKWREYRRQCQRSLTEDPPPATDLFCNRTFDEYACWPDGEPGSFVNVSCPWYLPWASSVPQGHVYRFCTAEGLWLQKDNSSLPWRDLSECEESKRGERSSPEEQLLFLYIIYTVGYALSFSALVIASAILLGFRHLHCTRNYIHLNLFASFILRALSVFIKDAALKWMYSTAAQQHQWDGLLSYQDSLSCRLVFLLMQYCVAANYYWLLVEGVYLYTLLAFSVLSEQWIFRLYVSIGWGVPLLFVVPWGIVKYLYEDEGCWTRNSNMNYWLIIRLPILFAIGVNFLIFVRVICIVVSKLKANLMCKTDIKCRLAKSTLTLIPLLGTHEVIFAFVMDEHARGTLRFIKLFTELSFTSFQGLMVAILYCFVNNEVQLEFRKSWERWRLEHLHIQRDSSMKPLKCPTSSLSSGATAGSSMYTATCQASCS

## CC[C@H](C)[C@H](NC(=O)C(C)(C)NC(=O)[C@H](Cc1ccc(O)cc1)NC(=O)[C@H](CC(=O)O)NC(=O)[C@H](CO)NC(=O)[C@@H](NC(=O)C(C)(Cc1ccccc1)NC(=O)[C@@H](NC(=O)CNC(=O)[C@H](CCC(=O)O)NC(=O)C(C)(C)NC(=O)[C@@H](N)Cc1ccc(O)cc1)[C@@H](C)O)[C@@H](C)O)C(=O)NC(C)(C)C(=O)N[C@@H](CC(C)C)C(=O)N[C@@H](CC(=O)O)C(=O)N[C@@H](CCCCN)C(=O)N[C@@H](CCC(N)=O)C(=O)N[C@@H](C)C(=O)N[C@@H](CCC(N)=O)C(=O)N[C@@H](C)C(=O)N[C@@H](CCC(=O)O)C(=O)N[C@@H](Cc1ccccc1)C(=O)N[C@H](C(=O)N[C@@H](CCCCNC(=O)COCCOCCNC(=O)COCCOCCNC(=O)CC[C@H](NC(=O)CCCCCCCCCCCCCCCCCCC(=O)O)C(=O)O)C(=O)N[C@@H](Cc1c[nH]c2ccccc12)C(=O)N[C@@H](CC(C)C)C(=O)N[C@@H](CC(C)C)C(=O)N[C@@H](CCCCN)C(=O)NCC(=O)NCC(=O)N1CCC[C@H]1C(=O)N[C@@H](CO)C(=O)N[C@@H](CO)C(=O)NCC(=O)N[C@@H](C)C(=O)N1CCC[C@H]1C(=O)N1CCC[C@H]1C(=O)N1CCC[C@H]1C(=O)N[C@@H](CO)C(=O)N[C@@H](CCCCN)C(N)=O)C(C)C (stereo partly drawn) [Compound P013]
Human GIP Receptor
  GIPR Ki ratio: 0.14
[1]
  Tmax: 24 h
  half-life: 15 ± 0.737 h
Human GLP-1R
  GLP-1R Ki ratio: 0.28
db/db mice; Group 2, longest time with p<0.05 vs. vehicle
  Hypoglycemic Duration: 72 h

## CC[C@H](C)[C@H](NC(=O)C(C)(C)NC(=O)[C@H](Cc1ccc(O)cc1)NC(=O)[C@H](CC(=O)O)NC(=O)[C@H](CO)NC(=O)[C@@H](NC(=O)C(C)(Cc1ccccc1)NC(=O)[C@@H](NC(=O)CNC(=O)[C@H](CCC(=O)O)NC(=O)C(C)(C)NC(=O)[C@@H](N)Cc1ccc(O)cc1)[C@@H](C)O)[C@@H](C)O)C(=O)NC(C)(C)C(=O)N[C@@H](CC(C)C)C(=O)N[C@@H](CC(=O)O)C(=O)N[C@@H](CCCCN)C(=O)N[C@@H](CCC(N)=O)C(=O)N[C@@H](C)C(=O)N[C@@H](CCC(N)=O)C(=O)N[C@@H](C)C(=O)N[C@@H](CCC(=O)O)C(=O)N[C@@H](Cc1ccccc1)C(=O)N[C@H](C(=O)N[C@@H](CCCCNC(=O)COCCOCCNC(=O)COCCOCCNC(=O)CC[C@H](NC(=O)CCCCCCCCCCCCCCCCC(=O)O)C(=O)O)C(=O)N[C@@H](Cc1c[nH]c2ccccc12)C(=O)N[C@@H](CC(C)C)C(=O)N[C@@H](CC(C)C)C(=O)N[C@@H](CCCCN)C(=O)NCC(=O)NCC(=O)N1CCC[C@H]1C(=O)N[C@@H](CO)C(=O)N[C@@H](CO)C(=O)NCC(=O)N[C@@H](C)C(=O)N1CCC[C@H]1C(=O)N1CCC[C@H]1C(=O)N1CCC[C@H]1C(=O)N[C@@H](CO)C(=O)N[C@@H](CCCCN)C(N)=O)C(C)C (stereo partly drawn) [Compound P007]
[1]
  Tmax: 7.33 ± 1.15 h
  half-life: 15 ± 2.89 h
Human GLP-1R
  GLP-1R Ki ratio: 0.47
db/db mice; [2]
  Hypoglycemic Duration: 56 h

## CC[C@H](C)[C@H](NC(=O)C(C)(C)NC(=O)[C@H](Cc1ccc(O)cc1)NC(=O)[C@H](CC(=O)O)NC(=O)[C@H](CO)NC(=O)[C@@H](NC(=O)C(C)(Cc1ccccc1)NC(=O)[C@@H](NC(=O)CNC(=O)[C@H](CCC(=O)O)NC(=O)C(C)(C)NC(=O)[C@@H](N)Cc1ccc(O)cc1)[C@@H](C)O)[C@@H](C)O)C(=O)NC(C)(C)C(=O)N[C@@H](CC(C)C)C(=O)N[C@@H](CC(=O)O)C(=O)N[C@@H](CCCCN)C(=O)N[C@@H](CCC(N)=O)C(=O)N[C@@H](C)C(=O)N[C@@H](CCC(N)=O)C(=O)N[C@@H](C)C(=O)N[C@@H](CCC(=O)O)C(=O)N[C@@H](Cc1ccccc1)C(=O)N[C@H](C(=O)N[C@@H](CCCCN)C(=O)N[C@@H](Cc1c[nH]c2ccccc12)C(=O)N[C@@H](CC(C)C)C(=O)N[C@@H](CC(C)C)C(=O)N[C@@H](CCCCNC(=O)COCCOCCNC(=O)COCCOCCNC(=O)COCCOCCNC(=O)CC[C@H](NC(=O)CCCCCCCCCCCCCCCCC(=O)O)C(=O)O)C(=O)NCC(=O)NCC(=O)N1CCC[C@H]1C(=O)N[C@@H](CO)C(=O)N[C@@H](CO)C(=O)NCC(=O)N[C@@H](C)C(=O)N1CCC[C@H]1C(=O)N1CCC[C@H]1C(=O)N1CCC[C@H]1C(=O)N[C@@H](CO)C(=O)N[C@@H](CCCCN)C(N)=O)C(C)C (stereo partly drawn) [Compound P019]
Human GIP Receptor
  GIPR Ki ratio: 0.09
[1]
  Tmax: 13.3 ± 9.24 h
  half-life: 10.9 ± 1.92 h
Human GLP-1R
  GLP-1R Ki ratio: 0.93
db/db mice
  inhibition of the blood glucose AUC, times of that of P001: 2.2 times
db/db mice; [2]
  Hypoglycemic Duration: 56 h

Source: patent EP4813403A1, “USE OF GLP-1R/GIPR DOUBLE-TARGET AGONIST IN PREPARING ANIMAL DRUG” (Hangzhou Zhongmeihuadong Pharmaceutical Co., Ltd., priority 2023, dated 2025)
